# Target: T1, 3-oxo-5-alpha-steroid 4-dehydrogenase 2 (Homo sapiens, UniProt P31213)
# T1 sequence (P31213 whole entry): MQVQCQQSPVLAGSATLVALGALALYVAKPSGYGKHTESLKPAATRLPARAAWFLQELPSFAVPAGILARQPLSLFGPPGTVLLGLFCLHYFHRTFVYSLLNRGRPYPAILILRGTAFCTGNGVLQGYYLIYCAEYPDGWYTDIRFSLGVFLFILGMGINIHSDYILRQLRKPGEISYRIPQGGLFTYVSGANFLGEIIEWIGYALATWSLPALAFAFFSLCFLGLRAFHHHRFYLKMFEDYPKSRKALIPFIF
# Experiment: 5Alpha-Reductase Activity Assay
# Conditions: pH 6.5; 37 °C
# Source text: The IC50 values for the synthesized steroids with human prostate 5alpha-reductase enzyme.
row,IC50 [nM],SMILES
1,8.5,"CC(C)(C)NC(=O)[C@H]1CCC2C3CCC4NC(=O)C=C[C@]4(C)C3CC[C@@]21C (stereo not given in full) [Finasteride, 3]"
2,360,"CC(=O)[C@@]1(OC(=O)c2ccccc2)CCC2C3CCC4=CC(=O)CC[C@]4(C)C3CC[C@@]21C (stereo not given in full) [Steroid, 9a]"
3,370,"CC(=O)[C@@]1(OC(=O)c2ccc(Br)cc2)CCC2C3CCC4=CC(=O)CC[C@]4(C)C3CC[C@@]21C (stereo not given in full) [Steroid, 9b]"

row,SMILES,IC50 [nM]
1,"CC(=O)[C@@]1(OC(=O)c2ccccc2)CCC2C3CC[C@@]45O[C@@H]4C(=O)CC[C@]5(C)C3CC[C@@]21C (stereo not given in full) [Steroid, 10a]",13
2,"CC(=O)[C@@]1(OC(=O)c2ccc(Br)cc2)CCC2C3CC[C@@]45O[C@@H]4C(=O)CC[C@]5(C)C3CC[C@@]21C (stereo not given in full) [Steroid, 10b]",4.9
